# Data published in US20260364168A1, “USE OF PROTEIN KINASE C (PKC) ACTIVATING COMPOUNDS AS AN ADJUVANT” (priority 2022, published 2026).
# Like-named read-outs stand apart in the source and are kept apart here.
# System: human PBMC cells
# Assay: cytokine/chemokine gene expression (TaqMan) in human PBMC
# Details: Homo sapiens, PBMC, 4 h
# Experimental: Materials and methods: 100 million frozen human PBMC cells were purchased from Allcells (100 million/vial). The cells were thawed and recovered for one day before 1.5-1.8 million cells in 900 μl RPMI1640 with 10% heat-inactivated FBS were seeded in each well of 24-well plates. Various compounds in DMSO stock (500×) were diluted 50-fold with the same media to make 10× compound stock for most compounds. 1 μL of 5 mg/mL PMA was diluted to 99 μL of the media to make 50 μg/mL PMA. For PMA with ionomycin treatment condition, 1.5 μL of 50 μg/mL PMA and 3 μL of 500 μg/mL ionomycin were added to 145.5 μL of the media to make 10× compound stock. Sources of the compounds are as follows: PMA from Abcam (Abcam #ab120297); Ionomycin from Sigma (Sigma #I0634); Resiquimod from Sellect Chem. (Selleckchem #S8133); and LPS from Sigma (Sigma #L6143).
# Each treatment condition was performed in duplicates. After treatment, mRNA was extracted from cells and samples from duplicates were combined for TaqMan gene expression assays (ThermoFisher) in triplicates. Expression of 19 genes (IL-1β, IL-2, IL-4, IL-6, IL-8, IL-10, IL-13, IL-18, IL-12p70/IL-12A, IL-12p40/IL-12B, IFN-α, IFN-γ, GM-CSF/CSF2, CCL2/MCP-1, MIP1a/CCL3, TNF-α, MX1, OAS1, ISG15) along with two housekeeping gene controls, 18S and GAPDH, was determined. Target gene expression in each sample was determined by relative quantification (RQ) using the comparative Ct (ΔΔCT) method. This method measures the Ct difference (ΔCT) between target gene and the housekeeping genes (18S & GAPDH), then compares the ΔCT values of treated samples to DMSO-treated control samples. The mean ΔCT value of the DMSO-treated control from two independent DMSO-treated control samples was used. The relative expression level of target gene was calculated by using the equation:
# relative expression=2^−ΔΔCT
smiles,measurement,setting,value
CC1=C[C@H]2[C@@]3(O)[C@H](C)C[C@]4(OC(=O)[C@@H](N)[C@]56C[C@H]7C[C@H](C[C@H](C7)C5)C6)[C@H]([C@@H]3C=C(CO)C[C@]2(O)C1=O)C4(C)C,fold induction at 0.01 µM,"read-out: CCL2 gene relative expression, 0.01 μM, 4 h, vs DMSO",5.58
same,fold induction at 0.03 µM,"read-out: CCL2 gene relative expression, 0.03 μM, 4 h, vs DMSO",3.59
same,fold induction at 0.1 µM,"read-out: CCL2 gene relative expression, 0.10 μM, 4 h, vs DMSO",0.38
same,fold induction at 0.01 µM,"read-out: GM-CSF gene relative expression, 0.01 μM, 4 h, vs DMSO",1.59
same,fold induction at 0.03 µM,"read-out: GM-CSF gene relative expression, 0.03 μM, 4 h, vs DMSO",8.38
same,fold induction at 0.1 µM,"read-out: GM-CSF gene relative expression, 0.10 μM, 4 h, vs DMSO",16.1
same,fold induction at 0.01 µM,"read-out: IFN-α gene relative expression, 0.01 μM, 4 h, vs DMSO",0.78
same,fold induction at 0.03 µM,"read-out: IFN-α gene relative expression, 0.03 μM, 4 h, vs DMSO",0.46
same,fold induction at 0.1 µM,"read-out: IFN-α gene relative expression, 0.10 μM, 4 h, vs DMSO",0.31
same,fold induction at 0.01 µM,"read-out: IFNγ gene relative expression, 0.01 μM, 4 h, vs DMSO",1.69
same,fold induction at 0.03 µM,"read-out: IFNγ gene relative expression, 0.03 μM, 4 h, vs DMSO",3.82
same,fold induction at 0.1 µM,"read-out: IFNγ gene relative expression, 0.10 μM, 4 h, vs DMSO",18.1
same,fold induction at 0.01 µM,"read-out: IL-1β gene relative expression, 0.01 μM, 4 h, vs DMSO",0.59
same,fold induction at 0.03 µM,"read-out: IL-1β gene relative expression, 0.03 μM, 4 h, vs DMSO",2.26
same,fold induction at 0.1 µM,"read-out: IL-1β gene relative expression, 0.10 μM, 4 h, vs DMSO",3
same,fold induction at 0.01 µM,"read-out: IL-2 gene relative expression, 0.01 μM, 4 h, vs DMSO",3.06
same,fold induction at 0.03 µM,"read-out: IL-2 gene relative expression, 0.03 μM, 4 h, vs DMSO",7.78
same,fold induction at 0.1 µM,"read-out: IL-2 gene relative expression, 0.10 μM, 4 h, vs DMSO",3.29
same,fold induction at 0.01 µM,"read-out: IL-4 gene relative expression, 0.01 μM, 4 h, vs DMSO",0.84
same,fold induction at 0.03 µM,"read-out: IL-4 gene relative expression, 0.03 μM, 4 h, vs DMSO",2.54
same,fold induction at 0.1 µM,"read-out: IL-4 gene relative expression, 0.10 μM, 4 h, vs DMSO",2.77
same,fold induction at 0.01 µM,"read-out: IL-6 gene relative expression, 0.01 μM, 4 h, vs DMSO",1.17
same,fold induction at 0.03 µM,"read-out: IL-6 gene relative expression, 0.03 μM, 4 h, vs DMSO",0.86
same,fold induction at 0.1 µM,"read-out: IL-6 gene relative expression, 0.10 μM, 4 h, vs DMSO",6.72
same,fold induction at 0.01 µM,"read-out: IL-8 gene relative expression, 0.01 μM, 4 h, vs DMSO",0.71
same,fold induction at 0.03 µM,"read-out: IL-8 gene relative expression, 0.03 μM, 4 h, vs DMSO",0.54
same,fold induction at 0.1 µM,"read-out: IL-8 gene relative expression, 0.10 μM, 4 h, vs DMSO",0.6
same,fold induction at 0.01 µM,"read-out: IL-10 gene relative expression, 0.01 μM, 4 h, vs DMSO",1.12
same,fold induction at 0.03 µM,"read-out: IL-10 gene relative expression, 0.03 μM, 4 h, vs DMSO",0.41
same,fold induction at 0.1 µM,"read-out: IL-10 gene relative expression, 0.10 μM, 4 h, vs DMSO",0.09
same,fold induction at 0.01 µM,"read-out: IL-12p40 gene relative expression, 0.01 μM, 4 h, vs DMSO",0.89
same,fold induction at 0.03 µM,"read-out: IL-12p40 gene relative expression, 0.03 μM, 4 h, vs DMSO",0.32
same,fold induction at 0.1 µM,"read-out: IL-12p40 gene relative expression, 0.10 μM, 4 h, vs DMSO",0.22
same,fold induction at 0.01 µM,"read-out: IL-12p70 gene relative expression, 0.01 μM, 4 h, vs DMSO",1.03
same,fold induction at 0.03 µM,"read-out: IL-12p70 gene relative expression, 0.03 μM, 4 h, vs DMSO",0.87
same,fold induction at 0.1 µM,"read-out: IL-12p70 gene relative expression, 0.10 μM, 4 h, vs DMSO",0.76
same,fold induction at 0.01 µM,"read-out: IL-13 gene relative expression, 0.01 μM, 4 h, vs DMSO",3.1
same,fold induction at 0.03 µM,"read-out: IL-13 gene relative expression, 0.03 μM, 4 h, vs DMSO",52.6
same,fold induction at 0.1 µM,"read-out: IL-13 gene relative expression, 0.10 μM, 4 h, vs DMSO",101
same,fold induction at 0.01 µM,"read-out: IL-18 gene relative expression, 0.01 μM, 4 h, vs DMSO",0.26
same,fold induction at 0.03 µM,"read-out: IL-18 gene relative expression, 0.03 μM, 4 h, vs DMSO",0.06
same,fold induction at 0.1 µM,"read-out: IL-18 gene relative expression, 0.10 μM, 4 h, vs DMSO",0.06
same,fold induction at 0.01 µM,"read-out: ISG15 gene relative expression, 0.01 μM, 4 h, vs DMSO",1.01
same,fold induction at 0.03 µM,"read-out: ISG15 gene relative expression, 0.03 μM, 4 h, vs DMSO",1.33
same,fold induction at 0.1 µM,"read-out: ISG15 gene relative expression, 0.10 μM, 4 h, vs DMSO",1.54
same,fold induction at 0.01 µM,"read-out: MIP1a (CCL3) gene relative expression, 0.01 μM, 4 h, vs DMSO",1.65
same,fold induction at 0.03 µM,"read-out: MIP1a (CCL3) gene relative expression, 0.03 μM, 4 h, vs DMSO",2.82
same,fold induction at 0.1 µM,"read-out: MIP1a (CCL3) gene relative expression, 0.10 μM, 4 h, vs DMSO",5.73
same,fold induction at 0.01 µM,"read-out: MX1 gene relative expression, 0.01 μM, 4 h, vs DMSO",0.84
same,fold induction at 0.03 µM,"read-out: MX1 gene relative expression, 0.03 μM, 4 h, vs DMSO",1.01
same,fold induction at 0.1 µM,"read-out: MX1 gene relative expression, 0.10 μM, 4 h, vs DMSO",0.99
same,fold induction at 0.01 µM,"read-out: OAS1 gene relative expression, 0.01 μM, 4 h, vs DMSO",0.74
same,fold induction at 0.03 µM,"read-out: OAS1 gene relative expression, 0.03 μM, 4 h, vs DMSO",0.78
same,fold induction at 0.1 µM,"read-out: OAS1 gene relative expression, 0.10 μM, 4 h, vs DMSO",0.69
same,fold induction at 0.01 µM,"read-out: TNF-α gene relative expression, 0.01 μM, 4 h, vs DMSO",2.39
same,fold induction at 0.03 µM,"read-out: TNF-α gene relative expression, 0.03 μM, 4 h, vs DMSO",4.48
same,fold induction at 0.1 µM,"read-out: TNF-α gene relative expression, 0.10 μM, 4 h, vs DMSO",6.25
